Laboratory results as given in patent publication US12227498B2, “Heterocyclic amine derivative and pharmaceutical composition comprising same” (Daewoong Pharmaceutical Co., Ltd., priority 2018, dated 2025).

Key:
BTK = target: T1, BTK (Homo sapiens, UniProt Q06187); test: Inhibitory activity against BTK, ADP-Glo + BTK Kinase enzyme system kit (Promega); type: biochemical; settings: BTK enzyme 1 ng/μl; ATP 10 µM; 15 min preincubation at room temperature; 1 hour at 30° C.; luminescence; duplicate
T1 construct: purchased Promega Corporation
Method: (§1) Inhibitory activities against BTK and ITK were measured for the compounds prepared in the above Examples as follows.
The inhibitory activities against BTK were evaluated using ‘ADP-Glo™+BTK Kinase enzyme system’ kit (Promega Corporation). […] 5 μl of substrate and 5 μl of ATP prepared so as to have a final concentration of 10 µM were added to the plate on which reactions were completed, and then allowed to react at 30° C. for 1 hour. All wells of the plate were treated with 25 μl of ADP-Glo™ reagent and allowed to react at 30° C. for 40 minutes. After that, all wells were treated with 50 μl of kinase detection buffer, and then reacted at 30° C. for 30 minutes under light shielding conditions. For the plate on which all reactions were completed, luminescence was measured and the results were calculated. Evaluation was carried out in duplicate, and negative control and positive control were calculated depending on whether or not the enzyme was added without treatment of the compound. The IC50 was calculated based on the calculated values.

ITK = target: T2, ITK (Homo sapiens, UniProt Q08881); test: Inhibitory activity against ITK, ADP-Glo + ITK Kinase enzyme system kit (Promega); type: biochemical; settings: ITK enzyme 0.4 ng/μl; 15 min preincubation at room temperature; 1 hour at 30° C.; luminescence; duplicate
T2 construct: purchased Promega Corporation
T2 sequence (Q08881 1-620): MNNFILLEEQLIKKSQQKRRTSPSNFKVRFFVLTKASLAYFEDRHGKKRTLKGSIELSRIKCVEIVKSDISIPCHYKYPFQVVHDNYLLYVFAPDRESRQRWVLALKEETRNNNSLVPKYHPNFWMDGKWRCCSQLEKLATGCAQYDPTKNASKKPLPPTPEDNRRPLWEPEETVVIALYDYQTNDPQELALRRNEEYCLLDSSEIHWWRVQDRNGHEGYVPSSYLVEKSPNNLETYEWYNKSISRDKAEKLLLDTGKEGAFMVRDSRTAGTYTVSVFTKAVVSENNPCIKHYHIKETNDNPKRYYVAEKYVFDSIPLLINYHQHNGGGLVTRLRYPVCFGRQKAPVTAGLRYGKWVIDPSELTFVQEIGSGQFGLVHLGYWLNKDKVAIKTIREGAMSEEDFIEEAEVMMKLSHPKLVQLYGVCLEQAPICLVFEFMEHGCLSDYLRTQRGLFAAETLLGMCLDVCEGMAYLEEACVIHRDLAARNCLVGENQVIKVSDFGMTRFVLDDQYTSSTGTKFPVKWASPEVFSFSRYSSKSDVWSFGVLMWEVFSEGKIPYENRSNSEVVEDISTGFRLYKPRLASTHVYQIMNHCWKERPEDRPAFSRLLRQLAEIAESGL
Method: as §1
The inhibitory activity against ITK was evaluated using ‘ADP-Glo™+ITK Kinase enzyme system’ kit (Promega Corporation). […] To the plate on which reactions were completed, 5 μl of substrate and 5 μl of ATP prepared so as to have a final concentration of […] were added and then allowed to react at 30° C. for 1 hour. All wells of the plate were treated with 25 μl of ADP-Glo™ reagent and then allowed to react at 30° C. for 40 minutes. After that, all wells were treated with 50 μl of kinase detection buffer, and then allowed to react at 30° C. for 30 minutes under light shielding conditions. For the plate on which all reactions were completed, luminescence was measured and the results were calculated. Evaluation was carried out in duplicate, and negative control and positive control were calculated depending on whether or not the enzyme was added without treatment of the compound. The IC50 was calculated based on the calculated values.

T1 sequence (Q06187 whole entry): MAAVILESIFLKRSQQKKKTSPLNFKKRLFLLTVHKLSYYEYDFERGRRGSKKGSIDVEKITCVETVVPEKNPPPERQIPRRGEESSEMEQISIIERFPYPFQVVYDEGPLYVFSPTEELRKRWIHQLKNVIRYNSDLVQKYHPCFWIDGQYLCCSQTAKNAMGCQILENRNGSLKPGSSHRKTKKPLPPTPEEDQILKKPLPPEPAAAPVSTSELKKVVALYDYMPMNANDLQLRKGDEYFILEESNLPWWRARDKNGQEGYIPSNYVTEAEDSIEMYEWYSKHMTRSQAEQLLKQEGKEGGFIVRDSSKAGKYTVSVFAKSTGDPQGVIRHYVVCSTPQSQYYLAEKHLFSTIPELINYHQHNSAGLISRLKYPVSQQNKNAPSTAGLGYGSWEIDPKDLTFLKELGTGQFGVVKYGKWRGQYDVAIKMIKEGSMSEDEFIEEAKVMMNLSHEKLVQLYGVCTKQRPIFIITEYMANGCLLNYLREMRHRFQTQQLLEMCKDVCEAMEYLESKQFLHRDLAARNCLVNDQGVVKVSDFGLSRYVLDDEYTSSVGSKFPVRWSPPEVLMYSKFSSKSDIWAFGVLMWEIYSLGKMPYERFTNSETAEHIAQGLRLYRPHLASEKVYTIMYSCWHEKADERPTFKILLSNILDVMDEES

| Compound | IC50 (BTK) [nM] | IC50 (ITK) [nM] |
| --- | --- | --- |
| C=CC(=O)NC1CCN(c2cc(CN3CCOCC3)cc(Nc3ncc(C)s3)n2)CC1 [Example 27, N-(1-(6-((5-methylthiazol-2-yl)amino)-4-(morpholinomethyl)pyridin-2-yl)piperidin-4-yl) acrylamide] | 85.2 | 43.8 |
| C=CC(=O)N1CCCC(Nc2cc(CN3CCOCC3)cc(Nc3ncc(C)s3)n2)C1 (stereo not drawn) [Example 1, 1-(3-((6-((5-methylthiazol-2-yl)amino)-4-(morpholinomethyl)pyridin-2-yl)amino)piperidin-1-yl) prop-2-en-1-one] | 4.7 | 4.1 |
| C=CC(=O)N1CCC(Nc2cc(CN3CCOCC3)cc(Nc3ncc(C)s3)n2)CC1 [Example 3, 1-(4-((6-((5-methylthiazol-2-yl)amino)-4-(morpholinomethyl)pyridin-2-yl)amino)piperidin-1-yl) prop-2-en-1-one] | 10.3 | 9.1 |
| CC#CC(=O)N1CCC(Nc2cc(CN3CCOCC3)cc(Nc3ncc(C)s3)n2)CC1 [Example 19, 1-(4-((6-((5-methylthiazol-2-yl)amino)-4-(morpholinomethyl)pyridin-2-yl)amino)piperidin-1-yl) but-2-yn-1-one] | 875 | – |
| C=CC(=O)N1CCC[C@H](Nc2cc(C)cc(Nc3ncc(C)s3)n2)C1 [Example 35, (S)-1-(3-((4-methyl-6-((5-methylthiazol-2-yl)amino)pyridin-2-yl)amino)piperidin-1-yl) prop-2-en-1-one] | 2.1 | 13.4 |
| CC#CC(=O)N1CCC2CCN(c3cc(CN4CCOCC4)cc(Nc4ncc(C)s4)n3)CC21 (stereo not drawn) [Example 29, 1-(6-(6-((5-methylthiazol-2-yl)amino)-4-(morpholinomethyl)pyridin-2-yl)octahydro-1H-pyrrolo[2,3-c]pyridin-1-yl) but-2-yn-1-one] | 18.5 | 50.4 |
| C=CC(=O)N1CCC[C@H](Nc2cc(OC3CCN(C)CC3)cc(Nc3ncc(C)s3)n2)C1 [Example 33, (S)-1-(3-((4-((1-methylpiperidin-4-yl)oxy)-6-((5-methylthiazol-2-yl)amino)pyridin-2-yl)amino)piperidin-1-yl) prop-2-en-1-one] | 1.8 | 3.9 |
| C=CC(=O)N1CCC(Nc2cc(CN3CCOCC3)cc(Nc3ncc(C)s3)n2)C1 (stereo not drawn) [Example 2, 1-(3-((6-((5-methylthiazol-2-yl)amino)-4-(morpholinomethyl)pyridin-2-yl)amino)pyrrolidin-1-yl) prop-2-en-1-one] | 3.1 | 2.6 |
| Cc1cnc(Nc2cc(CN3CCOCC3)cc(N[C@H]3CCCN(C(=O)CCCl)C3)n2)s1 [Example 45, (S)-3-chloro-1-(3-((6-((5-methylthiazol-2-yl)amino)-4-(morpholinomethyl)pyridin-2-yl)amino)piperidin-1-yl) propan-1-one] | 30.8 | 91.6 |
| CC#CC(=O)N1CCC[C@@H](Nc2cc(CN3CCOCC3)cc(Nc3ncc(C)s3)n2)C1 [Example 13, (R)-1-(3-((6-((5-methylthiazol-2-yl)amino)-4-(morpholinomethyl)pyridin-2-yl)amino)piperidin-1-yl) but-2-yn-1-one] | > 200 | > 200 |
| C=CC(=O)N1CCC[C@H](Nc2nc(CN3CCOCC3)cc(Nc3ncc(C)s3)n2)C1 [Example 21, (S)-1-(3-((4-((5-methylthiazol-2-yl)amino)-6-(morpholinomethyl)pyrimidin-2-yl)amino)piperidin-1-yl) prop-2-en-1-one] | 1.3 | 1.9 |
| C=CC(=O)N1CCC[C@H](Nc2cc(CN3CCOCC3)cc(Nc3nccs3)n2)C1 [Example 51, (S)-1-(3-(4-(morpholinomethyl)-6-(thiazol-2-ylamino)pyridin-2-ylamino)piperidin-1-yl) prop-2-en-1-one] | ~1000 | ~1000 |
| C=CC(=O)N1CCC[C@H](Nc2cc(Cc3cccnc3)cc(Nc3ncc(C)s3)n2)C1 [Example 36, (S)-1-(3-((6-((5-methylthiazol-2-yl)amino)-4-(pyridin-3-ylmethyl)pyridin-2-yl)amino)piperidin-1-yl) prop-2-en-1-one] | 3.9 | 1.8 |
| C=CC(=O)N1CCC2CCN(c3cc(CN4CCOCC4)cc(Nc4ncc(C)s4)n3)CC21 (stereo not drawn) [Example 28, 1-(6-(6-((5-methylthiazol-2-yl)amino)-4-(morpholinomethyl)pyridin-2-yl)octahydro-1H-pyrrolo[2,3-c]pyridin-1-yl) prop-2-en-1-one] | 8.8 | 31.7 |
| C=CC(=O)N1CCC[C@H](Nc2cc(CN3CCOCC3)cc(Nc3ccccn3)n2)C1 [Example 53, (S)-1-(3-(4-(morpholinomethyl)-6-(pyridin-2-ylamino)pyridin-2-ylamino)piperidin-1-yl) prop-2-en-1-one] | 7.7 | 42.8 |
| C=CC(=O)N1CCC[C@H](Nc2nc(Nc3ncc(C)s3)cc(CN3CCOCC3)c2F)C1 [Example 52, (S)-1-(3-(3-fluoro-6-(5-methylthiazol-2-ylamino)-4-(morpholinomethyl)pyridin-2-ylamino)piperidin-1-yl) prop-2-en-1-one] | ~1000 | ~1000 |
| C=CC(=O)N1CCC[C@H](Nc2cc(C#N)cc(Nc3ncc(C)s3)n2)C1 [Example 38] | 1.6 | 2.6 |
| C=CC(=O)N1CC[C@H](Nc2cc(CN3CCOCC3)cc(Nc3ncc(C)s3)n2)C1 [Example 7, (S)-1-(3-((6-((5-methylthiazol-2-yl)amino)-4-(morpholinomethyl)pyridin-2-yl)amino)pyrrolidin-1-yl) prop-2-en-1-one] | 3.6 | 3.5 |
| C/C=C/C(=O)N1CCC(Nc2cc(CN3CCOCC3)nc(Nc3ncc(C)s3)n2)C1 (stereo not drawn) [Example 9, (E)-1-(3-((2-((5-methylthiazol-2-yl)amino)-6-(morpholinomethyl)pyrimidin-4-yl)amino)pyrrolidin-1-yl) but-2-en-1-one] | > 1000 | > 1000 |
| C=CC(=O)N1CCC[C@@H](Nc2nc(CN3CCOCC3)cc(Nc3ncc(C)s3)n2)C1 [Example 25, (R)-1-(3-((4-((5-methylthiazol-2-yl)amino)-6-(morpholinomethyl)pyrimidin-2-yl)amino)piperidin-1-yl) prop-2-en-1-one] | ~1000 | ~1000 |
| C=CC(=O)N1CCC[C@H](Nc2cc(CN3CCN(CC)CC3)cc(Nc3ncc(C)s3)n2)C1 [Example 32] | 3 | 5.6 |
| C=CC(=O)N1CCC[C@H](Nc2cc(CN3CCOCC3)cc(Nc3cc[nH]n3)n2)C1 [Example 48, (S)-1-(3-(6-(1H-pyrazol-3-ylamino)-4-(morpholinomethyl)pyridin-2-ylamino)piperidin-1-yl) prop-2-en-1-one] | ~1000 | ~1000 |
| C#CC(=O)N1CCC[C@H](Nc2cc(OC3CCN(C)CC3)cc(Nc3ncc(C)s3)n2)C1 [Example 40, (S)-1-(3-((4-((1-methylpiperidin-4-yl)oxy)-6-((5-methylthiazol-2-yl)amino)pyridin-2-yl)amino)piperidin-1-yl) prop-2-yn-1-one] | 10.3 | 10.8 |
| C=CC(=O)N1CCC[C@H](Nc2cc(CN3CCN(CCCN)CC3)cc(Nc3ncc(C)s3)n2)C1 [Example 47, (S)-1-(3-(4-((4-(3-aminopropyl)piperazin-1-yl)methyl)-6-(5-methylthiazol-2-vlamino)pyridin-2-vlamino)piperidin-1-yl) prop-2-en-1-one] | 6.1 | 9 |
| CC#CC(=O)N1CCC[C@H](Nc2nc(CN3CCOCC3)cc(Nc3ncc(C)s3)n2)C1 [Example 23, (S)-1-(3-((4-((5-methylthiazol-2-yl)amino)-6-(morpholinomethyl)pyrimidin-2-yl)amino)piperidin-1-yl) but-2-yn-1-one] | 36.6 | – |
